# From patent publication EP0348509B1, “ANTI-RETROVIRAL DRUG” (TSUMURA & CO., priority 1987, dated 1989)
# Experiments:
# RSV. SR-A strain = test: Focus formation by RSV in primary chicken embryo fibroblasts; type: cell-based; conditions: Rous sarcoma virus, Fibroblast, 192 h, number of foci, 8 days, read-out: IC₅₀
# Description: A 24-well microplate was charged with 3.5 x 10⁵ cells per well of primary chicken embryo fibroblasts, and the fibroblasts were cultured at 37°C in an atmospher of 5% CO₂ for 6 hours. Then an RSV. SR-A strain having an infection multiplicity (M.O.I.) of about 2.0 x 10⁻⁴ and the test substance were added, and culturing was continued for further 2 hours. The cells were washed and the test substance and an agar culture medium were added, and then culturing was continued at 37°C in an atmospher of 5% CO₂ for further 8 days. The number of foci was counted, and the results are shown as IC₅₀ in Table 6.
# HTLV-1 = HTLV-1 production by MT-2 cells (RNA hybridization with 32P-labelled HTLV-1 cDNA); type: cell-based; conditions: 4 days, compared with control
# Description: The test substance and 1 x 10⁵ cells per well of MT-2 cells were charged in a 24-well microplate, and culturing was conducted for 4 days. Then the MT-2 cell suspension in each well was subjected to centrifugal separation, and the supernatant was extracted with phenol to obtain RNA of HTLV-1. This RNA and a known amount of HTLV-1 cDNA were plotted on a nitrocellulose paper, a comparative determination was carried out according to the hybridization using ³²P-labelled HTLV-1 cDNA, and the hydridization rate by the test substance was calculated by comparing the amount of the produced virus with that of the control.
# The results are shown as the hybridization rate (%) in Table 7.
# [1] = intravenous administration; species not given; cited from earlier work
# HIV = test: Inhibition of modification of HIV-infected MT-2 cells (living cell count after 1 week); type: cell-based; conditions: 5 µg/ml added; MT-2 cells infected with HIV; living cells counted after 1 week
# Description: MT-2 cells were cultured at a concentration of 3 x 10⁴ cells/ml in a culture medium of RPMI 1640 (supplied by Gibco Co.) containing 10% FCS (supplied by Gibco Co.). After 2 days, the MT-2 cells were infected with HIV at a ratio of 200 cells per HIV, were distributed into groups to which 5 µg/ml of baicalein, quercetin or hesperetin was added and non-added groups (control groups), and the effect of the addition was determined.
# [2] = tested on: male mice of the ddY line; test: Acute toxicity by oral administration, mice; type: in vivo; conditions: dose of 1 g/kg
# [3] = tested on: male rats of the Wistar line; test: Acute toxicity by oral administration, rats; type: in vivo; conditions: dose of 1 g/kg
# Reverse transcriptase = test: Inhibition of reverse transcriptase activity ([3H]dTTP incorporation into acid-insoluble fraction)
# Description: OF TOKYO PRESS TOKYO/KARGER, BASEL, pp. 603-605 (1975)], and then a reaction mixture liquid having the following composition was prepared.
# By "1 unit" is meant the unit of the relative activity of the reverse transcriptase required to consume 1 nmol of dNTP (deoxynucleic acid phosphate at 37°C for 1 hour.
# Then the dry extract powder obtained in the above-mentioned Specific Example, baicalein, baicalin, quercetin or hesperetin and refined water were added to 20 ml of the above-mentioned reaction mixture liquid so that the total volume was 50 µl, the incorporation of the radioactivity of [³H]dTTP into the acid-insoluble fraction was measured by a Beckmann scintillation counter, and the percent inhibition was calculated as the reverse transcriptase activity with respect to each concentration.
Structure (SMILES),modification of MT-2 cells with HIV was inhibited at a ratio (HIV),acute toxicity (death) [2],acute toxicity (death) [3],Percent inhibition (%) (Reverse transcriptase; concentration 1 µg/ml),Percent inhibition (%) (Reverse transcriptase; concentration 2 µg/ml),Percent inhibition (%) (Reverse transcriptase; concentration 5 µg/ml),Percent inhibition (%) (Reverse transcriptase; concentration 10 µg/ml),Percent inhibition (%) (Reverse transcriptase; concentration 20 µg/ml),further results
O=C1c2ccccc2C(=O)c2c1cc(S(=O)(=O)O)c(O)c2O [Alizarine Red S],–,–,–,–,–,–,–,–,IC50 (RSV. SR-A strain): 2.1 µg/mL; Hybridization Rate (%) (HTLV-1; Amount Added 20 µg/ml): 61.7%; LD₅₀ [1]: 70 mg/kg
O=C(O)CN(CC(=O)O)Cc1cc2c(c(O)c1O)C(=O)c1ccccc1C2=O [alizarin complexon],–,–,–,–,–,–,–,–,IC50 (RSV. SR-A strain): 4.3 µg/mL
"O=C1c2ccccc2C(=O)c2c1ccc(O)c2O [alizarin, 1,2-dihydroxyanthraquinone]",–,–,–,–,–,–,–,–,LD₅₀ [1]: 120 mg/kg
O=c1cc(-c2ccccc2)oc2cc(O)c(O)c(O)c12 [baicalein],at least 90%,no animal died,no animal died,92,98,100,100,100,Percent inhibition (%) (Reverse transcriptase; concentration 0.1 µg/ml): 29%; Percent inhibition (%) (Reverse transcriptase; concentration 0.2 µg/ml): 35%; Percent inhibition (%) (Reverse transcriptase; concentration 0.5 µg/ml): 74%
O=C(O)[C@H]1O[C@@H](Oc2cc3oc(-c4ccccc4)cc(=O)c3c(O)c2O)[C@H](O)[C@@H](O)[C@@H]1O [baicalin],–,no animal died,no animal died,19,27,73,90,100,–
COc1ccc([C@@H]2CC(=O)c3c(O)cc(O)cc3O2)cc1O [hesperetin],at least 90%,no animal died,no animal died,99,100,100,100,100,Percent inhibition (%) (Reverse transcriptase; concentration 50 µg/ml): 100%
O=C1c2ccccc2C(=O)c2c(O)c(O)cc(O)c21 [purpurin],–,–,–,–,–,–,–,–,Hybridization Rate (%) (HTLV-1; Amount Added 5 µg/ml): 61.3%
O=c1c(O)c(-c2ccc(O)c(O)c2)oc2cc(O)cc(O)c12 [quercetin],at least 90%,no animal died,no animal died,77,96,99,100,100,Percent inhibition (%) (Reverse transcriptase; concentration 50 µg/ml): 100%
